Like-named read-outs stand apart in the source and are kept apart here.
Legend:
[1] = test system: Wheat plants (Triticum aestivum cv. Cubus); experiment: Growth-promoting effect on wheat plants after root treatment (hydroponic culture); format: in vivo; set-up: Shoot-FW ± SE / Root-FW ± SE: unit not given here; settings: for Root-FW ± SE / Shoot-FW ± SE / activity at 1 µM / activity at 3 µM: seven days after treatment; for activity at 1 µM / activity at 3 µM: Triticum aestivum, 168 h
Method: Wheat plants (Triticum aestivum cv. Cubus) at the 2nd leaf stage were cultivated in 320 mL glass vessels with 300 mL half-strength Linsmaier-Skoog medium (Physiologia Plantarum 18: 100-127, 1964). The solution was aerated throughout experiment. The vessels were incubated randomized in a climate chamber under 16:8 h light:dark cycles (photon flux density 400 μmol m-2 s-1, 400-750 nm, Osram powerstar HQI-R 250W/NDL and Osram krypton 100W lamps) at 22° C. (light):20° C. (dark) and 75% relative humidity (3 plants per vessel, 9 replicate vessels). After 2 days of adaptation, plants were treated with Dimethyl-carbamic acid 2-methylcarbamoyl-2-[(1-methyl-3-trifluoromethyl-1H-pyrazole-4-carbonyl)-amino]-1-(tetrahydro-pyran-4-yl)-ethyl ester (compound 1) which was added to the medium in dimethyl sulfoxide (DMSO) solution (0.1% final concentration of DMSO). Controls received corresponding quantity of DMSO alone, with no adverse effect on the growth of the plants. Seven days after treatment, fresh weights (FW) of shoot and root, as the growth parameters, were measured and mean values±standard error (SE) of 27 plant parts was calculated.

[2] = test system: Wheat plants (Triticum aestivum cv. Monopol); experiment: Growth-promoting effect on wheat plants after foliar treatment (Example 2); format: in vivo; settings: for Number of tillers: per plant; for activity at 7.81 g/ha / activity at 15.63 g/ha / activity at 31.25 g/ha: Triticum aestivum, 504 h
Method: Wheat plants (Triticum aestivum cv. Monopol) were grown in soil with ten plants per pot (13 cm diameter) under greenhouse conditions. Plants at the 2nd leaf stage were sprayed with an aqueous solution of formulated Dimethyl-carbamic acid 2-methylcarbamoyl-2-[(1-methyl-3-trifluoromethyl-1H-pyrazole-4-carbonyl)-amino]-1-(tetrahydro-pyran-4-yl)-ethyl ester (compound 1). The compound was applied at three different dose rates, i.e. 31.25/15.63/7.81 g ai/ha and the spray volume was 750 l/ha. Ten replicate pots with ten plants each were used per treatment. After three weeks (21 days) plants were harvested and growth parameters were determined. The recorded parameters were fresh weight, dry weigh, leaf area (all per pot) and number of tillers (per plant). Mean values of results, standard deviation (SD) and percentage to control were calculated.

[3] = 7.81 g/ha foliar spray, 21 days, per pot
[4] = 15.63 g/ha foliar spray, 21 days, per pot
[5] = 31.25 g/ha foliar spray, 21 days, per pot

In the case of `CNC(=O)C(NC(=O)c1cn(C)nc1C(F)(F)F)C(OC(=O)N(C)C)C1CCOCC1` (stereo not shown) [Compound 1, Dimethyl-carbamic acid 2-methylcarbamoyl-2-[(1-methyl-3-trifluoromethyl-1H-pyrazole-4-carbonyl)-amino]-1-(tetrahydro-pyran-4-yl)-ethyl ester], the “Root-FW ± SE” value ([1]; Experiment 1, 1 μM in medium) is reported as 0.403 ± 0.015, the “Shoot-FW ± SE” value ([1]; Experiment 1, 1 μM in medium) is reported as 0.747 ± 0.017 and the “Root-FW ± SE” value ([1]; Experiment 1, 3 μM in medium) is reported as 0.382 ± 0.013. The “Shoot-FW ± SE” value ([1]; Experiment 1, 3 μM in medium) was 0.733 ± 0.019, the “Root-FW ± SE” value ([1]; Experiment 2, 1 μM in medium) was 0.342 ± 0.010 and the “Shoot-FW ± SE” value ([1]; Experiment 2, 1 μM in medium) was 0.736 ± 0.024. For the same compound, the “Root-FW ± SE” value ([1]; Experiment 2, 3 μM in medium) was 0.335 ± 0.012, the “Shoot-FW ± SE” value ([1]; Experiment 2, 3 μM in medium) was 0.738 ± 0.021 and the activity at 1 µM ([1]; Experiment 1, 1 μM in medium, read-out: Root-FW % of control) was 113%. For the same compound, the activity at 1 µM ([1]; Experiment 1, 1 μM in medium, read-out: Shoot-FW % of control) was 115%, the activity at 3 µM ([1]; Experiment 1, 3 μM in medium, read-out: Root-FW % of control) was 107% and the activity at 3 µM ([1]; Experiment 1, 3 μM in medium, read-out: Shoot-FW % of control) was 112%. For the same compound, the activity at 1 µM ([1]; Experiment 2, 1 μM in medium, read-out: Root-FW % of control) was 105%, the activity at 1 µM ([1]; Experiment 2, 1 μM in medium, read-out: Shoot-FW % of control) was 115% and the activity at 3 µM ([1]; Experiment 2, 3 μM in medium, read-out: Root-FW % of control) was 103%. For the same compound, the activity at 3 µM ([1]; Experiment 2, 3 μM in medium, read-out: Shoot-FW % of control) was 115%, the “shoot tillering and adventitious root growth” value ([1]; root treatment) was “promoted” and the “stimulation of shoot and root growth relative to controls” value ([1]; root treatment, 1 and 3 μM, two experiments) was “up to 15%”. The Number of tillers ([2]; 7.81 g/ha foliar spray, 21 days) was 2.9, the Leaf area [2, 3] was 1121.1 cm^2 and the “Shoot DW” value [2, 3] was 4.4 g. The “Shoot FW” value [2, 3] was 43.9 g, the Number of tillers ([2]; 15.63 g/ha foliar spray, 21 days) was 2.8 and the Leaf area [2, 4] was 1046.3 cm^2. The “Shoot DW” value [2, 4] was 4.0 g, the “Shoot FW” value [2, 4] was 40.5 g and the Number of tillers ([2]; 31.25 g/ha foliar spray, 21 days) was 2.8. The Leaf area [2, 5] was 1060.3 cm^2, the “Shoot DW” value [2, 5] was 4.2 g and the “Shoot FW” value [2, 5] was 42.8 g. It also gave an activity at 7.81 g/ha ([2]; 7.81 g/ha foliar spray, 21 days, read-out: Leaf area % of control) of 126%, an activity at 7.81 g/ha ([2]; 7.81 g/ha foliar spray, 21 days, read-out: Number of tillers % of control) of 118% and an activity at 7.81 g/ha ([2]; 7.81 g/ha foliar spray, 21 days, read-out: Shoot DW % of control) of 127%. For the same compound, the activity at 7.81 g/ha ([2]; 7.81 g/ha foliar spray, 21 days, read-out: Shoot FW % of control) was 126%, the activity at 15.63 g/ha ([2]; 15.63 g/ha foliar spray, 21 days, read-out: Leaf area % of control) was 118% and the activity at 15.63 g/ha ([2]; 15.63 g/ha foliar spray, 21 days, read-out: Number of tillers % of control) was 114%. It also gave an activity at 15.63 g/ha ([2]; 15.63 g/ha foliar spray, 21 days, read-out: Shoot DW % of control) of 116%, an activity at 15.63 g/ha ([2]; 15.63 g/ha foliar spray, 21 days, read-out: Shoot FW % of control) of 116% and an activity at 31.25 g/ha ([2]; 31.25 g/ha foliar spray, 21 days, read-out: Leaf area % of control) of 120%. The activity at 31.25 g/ha ([2]; 31.25 g/ha foliar spray, 21 days, read-out: Number of tillers % of control) was 114%, the activity at 31.25 g/ha ([2]; 31.25 g/ha foliar spray, 21 days, read-out: Shoot DW % of control) was 122% and the activity at 31.25 g/ha ([2]; 31.25 g/ha foliar spray, 21 days, read-out: Shoot FW % of control) was 123%. For the same compound, the “growth promoting (yield increasing) effect, dose response” value ([2]; by lowering the dose rate) was “more pronounced”, the shoot tillering ([2]; foliar treatment) was “increased” and the “increase in fresh and dry weight related to control” value ([2]; foliar treatment, 7.81-31.25 g/ha) was “up to 26%”. For the same compound, the Leaf area ([2]; foliar treatment, lowest dose rate gave the highest effect) was “increased”.
